Columns and labels:
[1] = target: T1, myosin light chain kinase (MLCK) (Gallus gallus, UniProt P11799); assay: Calcium-Calmodulin Independent Myosin Light Chain Kinase (MLCK) Assay; format: biochemical, chicken; details: for IC50: calmodulin-independent MLCK (trypsin digested, chicken gizzard), peptide KKRPQRATSNVFS-NH2 50 μM, 100 uM ATP, pH 7.2; for inhibition at 100 µM: 100 μM compound, calmodulin-independent MLCK, printed in the IC50 (μM) column, read-out: percent inhibition at a dosage of 100 μM
T1 construct: Calmodulin-independent myosin light chain kinase(CIM) of greater than 95 percent homogeneity is prepared by trypsin digestion of calmodulin-dependent MLCK; from tissue; host or cells: chicken gizzard (purified from tissue, then digested with TPCK-treated trypsin)
Experimental: A. Enzyme Preparation. Calmodulin-independent myosin light chain kinase(CIM) of greater than 95 percent homogeneity is prepared by trypsin digestion of calmodulin-dependent MLCK which is prepared from chicken gizzard by the method of Ngai, P. J., Carruthers, C. A. and Walsh, M. P. (1984), Biochem. J. 218, pages 863-870, through the step employing diethylaminoethyl(DEAE)-Sephacel®, trademark of Pharmacia Fine Chemicals, Inc., New Market, N.J. 08854. The kinase solution containing 8.5 mg protein is adjusted to 0.5 mg/ml in 20 mM Tris/HCl, pH 7.5, 2 mM EGTA. An aliquot of 1 mg/ml of N-tosyl-L-phenylalanine-chloromethyl ketone (TPCK) treated trypsin is added to a final trypsin:MLCK ratio of 1:7.5 (mg/mg protein). Typically, the reaction is incubated for 6 minutes at 25° C.
MLCK is assayed using the synthetic peptide substrate KKRPQRATSNVFS-NH2, a thirteen amino acid fragment with a sequence corresponding to residues 11-23 of gizzard light chain except for a carboxy-terminal serine-NH2 as described in Kemp, G. E., Pearson, R. B. and House, C. (1983) Proc. Nat. Acad. Sci. U.S.A. 80, pages 7471-7475. The standard assay is performed in a total volume of 100 microliters (μl) containing 20 mM Tris-HCl, pH 7.2, 10 mM MgCl2, 100 uM [γ-^32 P] ATP with a specific activity of 300-1000 counts per minute (cpm) per picomole (pmol), 50 μM KKRPQRATSNVFS-NH2, 0.02 μg enzyme. Calmodulin was added at the concentrations indicated in the text and tables, and assays contained 1 mM EGTA or 1 mM EGTA plus approximately 200 μM excess free calcium when calcium-dependent activity was measured. Calcium-independent activity is negligible in the calcium dependent gizzard enzyme. Assays are initiated by addition of adenosine triphosphate (ATP) and stopped by addition of 200 μM HCl. Phosphate incorporated into the basic substrate is measured by spotting an aliquot on phosphocellulose filter paper, washing and counting the papers. The results are given in IC50 values. An IC50 indicates the dosage of compound in micromoles (μM) which inhibits MLCK by 50 percent. […] Results given in percentages (%) indicates the percent inhibition at a dosage of 100 μM.

[2] = system: conscious spontaneously hypertensive rats (SHR); assay: Antihypertensive Activity in Rats (conscious spontaneously hypertensive rats, SHR); format: in vivo, rat; details: for Change in blood pressure (mean change in mean blood pressure): male SHR, placebo -5
From the text: The ability of the compounds of the present invention to lower blood pressure can be assessed in conscious spontaneously hypertensive rats (SHR). SHR (males) are purchased from Taconic Farms, Germantown, N.Y. and are approximately 16-17 weeks old when used to test the pharmacological effects. Rats, under ether anesthesia, receive a polyethylene tubing (PE50 fused to PE10) inserted via the caudal artery into the abdominal aorta to just below the renal arteries. This catheter is connected to a Spectromed pressure transducer and the direct arterial blood pressure is continuously recorded on an oscillographic recorder. Heart rate is determined via manual count of the pressure waves at a fast paper trace. […] If drugs are administered orally, compounds are suspended in 0.4% aqueous methylcellulose and delivered via oral gavage with an oral feeding needle. Rats are fasted overnight prior to intravenous or oral tests. All incisions are closed and the rats are placed into plexiglass restrainers where they quickly regain consciousness. At least 90 minutes are allowed for the rats to fully regain consciousness and achieve stable blood pressures and heart rates.
Intravenously administered drugs are usually given as a rapid bolus. […] In some cases drugs are given by constant intravenous infusion. The 0.4% aqueous methylcellulose is used as a placebo treatment for compounds given orally. Values are presented as the mean changes in mean blood pressure (MBP) in millimeters of mercury (mm Hg). Drug induced changes are compared with the changes in an appropriate placebo group. The compound is administered intravenously at a dosage of 1.0 to 5.0 milligrams per kilogram (mpk) body weight. The following results are representative for 1-((7-bromo-9H-fluoren-2-yl)sulfonyl)hexahydro-1H-1,4-diazepine from examples 4 and 27 (Compound A): […]

T1 sequence (P11799 1217-1713 limits assumed): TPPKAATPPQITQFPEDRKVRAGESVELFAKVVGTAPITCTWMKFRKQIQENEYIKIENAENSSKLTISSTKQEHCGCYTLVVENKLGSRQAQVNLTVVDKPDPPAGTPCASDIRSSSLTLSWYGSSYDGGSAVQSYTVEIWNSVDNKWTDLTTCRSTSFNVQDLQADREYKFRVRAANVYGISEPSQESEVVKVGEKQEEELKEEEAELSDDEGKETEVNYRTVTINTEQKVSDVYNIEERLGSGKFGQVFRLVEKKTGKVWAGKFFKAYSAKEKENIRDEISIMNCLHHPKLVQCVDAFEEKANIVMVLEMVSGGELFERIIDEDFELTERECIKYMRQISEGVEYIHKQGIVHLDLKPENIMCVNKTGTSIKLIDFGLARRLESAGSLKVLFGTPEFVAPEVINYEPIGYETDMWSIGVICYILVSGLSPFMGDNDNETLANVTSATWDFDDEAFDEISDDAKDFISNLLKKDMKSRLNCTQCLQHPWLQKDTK

SMILES	IC50 [1] [µM]	other results
O=S(=O)(c1ccc2c(c1)Cc1cc(Br)ccc1-2)N1CCCNCC1 [Compound A, 1-((7-bromo-9H-fluoren-2-yl)sulfonyl)hexahydro-1H-1,4-diazepine]	76	Change in blood pressure (mean change in mean blood pressure) ([2]; intravenous, 1.0 mpk): -13 mm Hg; reduction in blood pressure upon intravenous administration ([2]; intravenous, 1.0 to 5.0 mpk, SHR): dose-dependent reduction in blood pressure; Change in blood pressure (mean change in mean blood pressure) ([2]; intravenous, 2.5 mpk): -25 mm Hg; magnitude of the effect at the highest dose compared with the placebo ([2]; intravenous, 5.0 mpk, SHR, compared with placebo): marked reduction; Change in blood pressure (mean change in mean blood pressure) ([2]; intravenous, 5.0 mpk): -30 mm Hg; activity upon oral administration ([2]; oral, 50 mpk, SHR): does not show activity
O=S(=O)(c1cccc2cc3ccccc3cc12)N1CCCNCC1 [Example 16]	17	
O=S(=O)(c1ccc2cc3ccccc3cc2c1)N1CCCNCC1 [Example 17]	50	
O=S(=O)(c1cc2ccccc2c2ccccc12)N1CCCNCC1 [Example 18]	4.8	
O=S(=O)(c1ccc2c(ccc3ccccc32)c1)N1CCCNCC1 [Example 19]	11	
O=S(=O)(c1ccc2c(Br)cc3ccccc3c2c1)N1CCCNCC1 [Example 20]	10	
O=S(=O)(c1cccc2nc3ccccc3cc12)N1CCCNCC1 [Example 21]	100	
O=S(=O)(c1ccc2ncc3ccccc3c2c1)N1CCCNCC1 [Example 22]	32	
O=S(=O)(c1ccc2c(cnc3ccccc32)c1)N1CCCNCC1 [Example 23]	65	
O=S(=O)(c1cccc2c1cnc1ccccc12)N1CCCNCC1 [Example 24]	35	
O=S(=O)(c1c2ccccc2cc2ccccc12)N1CCCNCC1 [Example 25]	5	
O=S(=O)(c1cc2ccccc2c2ccccc12)N1CCCNCC1 [Example 26]	3.5	
N=C(N)N1CCCN(S(=O)(=O)c2ccc3c(c2)Cc2cc(Br)ccc2-3)CC1 [Example 28]		inhibition at 100 µM [1]: 55%
CC1(C)c2cc(Br)ccc2-c2ccc(S(=O)(=O)N3CCCNCC3)cc21 [Example 29]		inhibition at 100 µM [1]: 40%
